Assay results published in ChEMBL document CHEMBL1795223, “A reverse method for diversity introduction of benzimidazole to synthesize H(+)/K(+)-ATP enzyme inhibitors” (Bioorg Med Chem Lett, 2011).

Tests used:
[1] = organism: Sus scrofa; test: Inhibition of H+/K+ATPase in pig gastric microsome assessed as liberation of inorganic phosphate using ATP at 10 uM relative to control; format: microsomes; details: Stomach
[2] = Inhibition of H+/K+ATPase in pig gastric microsome assessed as liberation of inorganic phosphate using ATP; format: microsomes, Sus scrofa, Stomach

| inhibition [1] [%] | IC50 [2] [µM] | Compound |
| --- | --- | --- |
| 13 |  | COc1cc2nc([S+]([O-])Cc3ncc(C)c(OC)c3C)[nH]c2cc1NC(=O)c1ccco1 (stereo unspecified) |
| 58 |  | COc1c(C)cnc(C[S+]([O-])c2nc3cc(N4CCCCC4)c(NC(=O)COCc4ccccc4)cc3[nH]2)c1C (stereo unspecified) |
| 2 |  | COc1ccnc(C[S+]([O-])c2nc3cc(Oc4ccccc4)c(NC(=O)C4CC4)cc3[nH]2)c1OC (stereo unspecified) |
| 34 |  | COc1c(C)cnc(C[S+]([O-])c2nc3cc(N4CCCCC4)c(NC(=O)C4CC4)cc3[nH]2)c1C (stereo unspecified) |
| 4 |  | CCOC(=O)N1CCN(c2cc3nc([S+]([O-])Cc4nccc(OC)c4OC)[nH]c3cc2NC(=O)C2CC2)CC1 (stereo unspecified) |
| 18 |  | COc1c(C)cnc(C[S+]([O-])c2nc3cc(Oc4ccccc4)c(NC(=O)C4CC4)cc3[nH]2)c1C (stereo unspecified) |
| 39 |  | CCCN(CCC)c1cc2nc([S+]([O-])Cc3ncc(C)c(OC)c3C)[nH]c2cc1NC(=O)c1ccco1 (stereo unspecified) |
| 4 |  | COc1cc2nc([S+]([O-])Cc3ncc(C)c(OC)c3C)[nH]c2cc1NC(C)=O (stereo unspecified) |
| 21 |  | CCOC(=O)N1CCN(c2cc3nc([S+]([O-])Cc4ncc(C)c(OC)c4C)[nH]c3cc2NC(=O)C2CC2)CC1 (stereo unspecified) |
| 9 |  | COc1ccnc(C[S+]([O-])c2nc3cc(Oc4ccccc4)c(NC(=O)c4ccco4)cc3[nH]2)c1OC (stereo unspecified) |
| 16 |  | COc1cc2nc([S+]([O-])Cc3nccc(OC)c3OC)[nH]c2cc1NC(=O)C1CC1 (stereo unspecified) |
| 6 |  | COc1ccnc(C[S+]([O-])c2nc3cc(Oc4ccccc4)c(NC(C)=O)cc3[nH]2)c1OC (stereo unspecified) |
| 3 |  | CCCN(CCC)c1cc2nc([S+]([O-])Cc3ncc(C)c(OC)c3C)[nH]c2cc1NC(=O)C(F)(F)F (stereo unspecified) |
| 24 |  | CCCN(CCC)c1cc2nc([S+]([O-])Cc3nccc(OC)c3OC)[nH]c2cc1NC(=O)C(F)(F)F (stereo unspecified) |
| 48 |  | COc1c(C)cnc(C[S+]([O-])c2nc3cc(Oc4ccccc4)c(NC(=O)c4ccco4)cc3[nH]2)c1C (stereo unspecified) |

Continued, compound first:

| Compound | inhibition [1] [%] | IC50 [2] [µM] |
| --- | --- | --- |
| COc1cc2nc([S+]([O-])Cc3ncc(C)c(OC)c3C)[nH]c2cc1NC(=O)C1CC1 (stereo unspecified) | 16 |  |
| CCCN(CCC)c1cc2nc([S+]([O-])Cc3nccc(OC)c3OC)[nH]c2cc1NC(=O)c1ccco1 (stereo unspecified) | 0 |  |
| COc1ccnc(C[S+]([O-])c2nc3cc(N4CCCCC4)c(NC(=O)C(F)(F)F)cc3[nH]2)c1OC (stereo unspecified) | 38 |  |
| COc1ccnc(C[S+]([O-])c2nc3cc(Oc4ccc5c(c4)OCO5)c(NC(=O)C4CC4)cc3[nH]2)c1OC (stereo unspecified) | 0 |  |
| CCCN(CCC)c1cc2nc([S+]([O-])Cc3ncc(C)c(OC)c3C)[nH]c2cc1NC(=O)C1CC1 (stereo unspecified) | 33 |  |
| COCCCOc1ccnc(C[S+]([O-])c2nc3ccccc3[nH]2)c1C (stereo unspecified) [RABEPRAZOLE SODIUM] | 90 | 1.5 |
| CCOC(=O)N1CCN(c2cc3nc([S+]([O-])Cc4ncc(C)c(OC)c4C)[nH]c3cc2NC(C)=O)CC1 (stereo unspecified) | 15 |  |
| COc1c(C)cnc(C[S+]([O-])c2nc3cc(N4CCCCC4)c(NC(=O)C(F)(F)F)cc3[nH]2)c1C (stereo unspecified) | 41 |  |
| CCCN(CCC)c1cc2nc([S+]([O-])Cc3ncc(C)c(OC)c3C)[nH]c2cc1NC(C)=O (stereo unspecified) | 62 | 16 |
| COc1c(C)cnc(C[S+]([O-])c2nc3cc(Oc4ccccc4)c(NC(C)=O)cc3[nH]2)c1C (stereo unspecified) | 37 |  |
| COc1ccc2[nH]c([S+]([O-])Cc3ncc(C)c(OC)c3C)nc2c1 (stereo unspecified) [OMEPRAZOLE] | 39 | 18 |
| CCCN(CCC)c1cc2nc([S+]([O-])Cc3nccc(OC)c3OC)[nH]c2cc1NC(C)=O (stereo unspecified) | 28 |  |
| COc1cc2nc([S+]([O-])Cc3nccc(OC)c3OC)[nH]c2cc1NC(C)=O (stereo unspecified) | 4 |  |
| COc1c(C)cnc(C[S+]([O-])c2nc3cc(N4CCCCC4)c(NC(C)=O)cc3[nH]2)c1C (stereo unspecified) | 10 |  |
| COc1ccnc(C[S+]([O-])c2nc3cc(N4CCCCC4)c(NC(=O)COCc4ccccc4)cc3[nH]2)c1OC (stereo unspecified) | 32 |  |
| COc1ccnc(C[S+]([O-])c2nc3cc(N4CCCCC4)c(NC(C)=O)cc3[nH]2)c1OC (stereo unspecified) | 8 |  |
| COc1ccnc(C[S+]([O-])c2nc3cc(Oc4ccc5c(c4)OCO5)c(NC(C)=O)cc3[nH]2)c1OC (stereo unspecified) | 1 |  |
| CCOC(=O)N1CCN(c2cc3nc([S+]([O-])Cc4nccc(OC)c4OC)[nH]c3cc2NC(C)=O)CC1 (stereo unspecified) | 17 |  |
| COc1c(C)cnc(C[S+]([O-])c2nc3cc(Oc4ccc5c(c4)OCO5)c(NC(=O)C4CC4)cc3[nH]2)c1C (stereo unspecified) | 10 |  |
| COc1ccnc(C[S+]([O-])c2nc3cc(N4CCCCC4)c(NC(=O)C4CC4)cc3[nH]2)c1OC (stereo unspecified) | 32 |  |
| CCCN(CCC)c1cc2nc([S+]([O-])Cc3nccc(OC)c3OC)[nH]c2cc1NC(=O)C1CC1 (stereo unspecified) | 11 |  |
| COc1cc2nc([S+]([O-])Cc3nccc(OC)c3OC)[nH]c2cc1NC(=O)c1ccco1 (stereo unspecified) | 13 |  |
| COc1c(C)cnc(C[S+]([O-])c2nc3cc(Oc4ccc5c(c4)OCO5)c(NC(C)=O)cc3[nH]2)c1C (stereo unspecified) | 35 |  |
